Assay results taken from the supplement of paper PMC10883282.

Assays:
Assay in all cases: relative viability vs DMSO control (72 h) (fraction); higher = more viable cells
SW872 = tested on: SW872
How it was run: (§1)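 Densities for seeding sarcoma cell lines into 384-well plates were set to give 80–90% confluence. After 24 h, 2.5 µl of serially diluted compound from source plates of 10 mM to 0.0002 mM went in, and plates stayed 72 h at 37 °C in 5% CO2 with 0.1% DMSO vehicle and a 5 µM positive control. Percent growth from ATPLite readings, averaged over up to triplicate wells, served as relative viability, rescaled so 1 means full and 0 means none.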

VA-ES-BJ = tested on: VA-ES-BJ
How it was run: as §1

SK-LMS-1 = tested on: SK-LMS-1
How it was run: as §1

SW1353 = tested on: SW1353
How it was run: as §1

HT1080 = tested on: HT1080
How it was run: as §1

G401 = tested on: G401
How it was run: as §1

SK-ES-1 = tested on: SK-ES-1
How it was run: as §1

KHOS-NP = tested on: KHOS-NP
How it was run: as §1

MES-SA = tested on: MES-SA
How it was run: as §1

SW684 = tested on: SW684
How it was run: as §1

RD-ES = tested on: RD-ES
How it was run: as §1

RD = tested on: RD
How it was run: as §1

O=C1NC(=O)[C@@H](c2cn3c4c(cccc24)CCC3)[C@@H]1c1c[nH]c2ccccc12 [Tivantinib]
Conditions | relative viability
G401, 0.00017 µM | 1
G401, 0.00051 µM | 1.01
G401, 0.00152 µM | 1.03
G401, 0.00457 µM | 1.03
G401, 0.01372 µM | 1.02
G401, 0.04115 µM | 0.982
G401, 0.1235 µM | 1.05
G401, 0.3704 µM | 0.941
G401, 1.111 µM | 0.573
G401, 3.333 µM | 0.534
G401, 10 µM | 0.367
HT1080, 0.00017 µM | 1.047
HT1080, 0.00051 µM | 1.02
HT1080, 0.00152 µM | 1.03
HT1080, 0.00457 µM | 1.04
HT1080, 0.01372 µM | 1.01
HT1080, 0.04115 µM | 1.04
HT1080, 0.1235 µM | 1.03
HT1080, 0.3704 µM | 1.02
HT1080, 1.111 µM | 0.287
HT1080, 3.333 µM | 0.128
HT1080, 10 µM | 0.0702
KHOS-NP, 0.00017 µM | 1.036
KHOS-NP, 0.00051 µM | 1.04
KHOS-NP, 0.00152 µM | 1.036
KHOS-NP, 0.00457 µM | 1.03
KHOS-NP, 0.01372 µM | 1.04
KHOS-NP, 0.04115 µM | 1.04
KHOS-NP, 0.1235 µM | 1.04
KHOS-NP, 0.3704 µM | 1.05
KHOS-NP, 1.111 µM | 0.541
KHOS-NP, 3.333 µM | 0.487
KHOS-NP, 10 µM | 0.374
MES-SA, 0.00017 µM | 0.9028
MES-SA, 0.00051 µM | 0.908
MES-SA, 0.00152 µM | 0.92
MES-SA, 0.00457 µM | 0.919
MES-SA, 0.01372 µM | 0.914
MES-SA, 0.04115 µM | 0.888
MES-SA, 0.1235 µM | 0.919
MES-SA, 0.3704 µM | 0.406
MES-SA, 1.111 µM | 0.285
MES-SA, 3.333 µM | 0.205
MES-SA, 10 µM | 0.1134
RD, 0.00017 µM | 1.05
RD, 0.00051 µM | 1.09
RD, 0.00152 µM | 1.09
RD, 0.00457 µM | 1.1
RD, 0.01372 µM | 1.12
RD, 0.04115 µM | 1.04
RD, 0.1235 µM | 1.04
RD, 0.3704 µM | 0.81
RD, 1.111 µM | 0.371
RD, 3.333 µM | 0.219
RD, 10 µM | 0.267
RD-ES, 0.00017 µM | 0.948
RD-ES, 0.00051 µM | 0.967
RD-ES, 0.00152 µM | 0.986
RD-ES, 0.00457 µM | 1
RD-ES, 0.01372 µM | 1
RD-ES, 0.04115 µM | 1.01
RD-ES, 0.1235 µM | 0.977
RD-ES, 0.3704 µM | 0.94
RD-ES, 1.111 µM | 0.129
RD-ES, 3.333 µM | 0.071
RD-ES, 10 µM | 0.0364
SK-ES-1, 0.00017 µM | 1.01
SK-ES-1, 0.00051 µM | 1.04
SK-ES-1, 0.00152 µM | 1
SK-ES-1, 0.00457 µM | 1.08
SK-ES-1, 0.01372 µM | 1.03
SK-ES-1, 0.04115 µM | 1.02
SK-ES-1, 0.1235 µM | 0.9862
SK-ES-1, 0.3704 µM | 0.645
SK-ES-1, 1.111 µM | 0.0656
SK-ES-1, 3.333 µM | 0.0193
SK-ES-1, 10 µM | 0.0196
SK-LMS-1, 0.00017 µM | 1
SK-LMS-1, 0.00051 µM | 1.01
SK-LMS-1, 0.00152 µM | 0.972
SK-LMS-1, 0.00457 µM | 1.002
SK-LMS-1, 0.01372 µM | 1
SK-LMS-1, 0.04115 µM | 0.965
SK-LMS-1, 0.1235 µM | 0.887
SK-LMS-1, 0.3704 µM | 0.5799
SK-LMS-1, 1.111 µM | 0.497
SK-LMS-1, 3.333 µM | 0.385
SK-LMS-1, 10 µM | 0.301
SW684, 0.00017 µM | 1.15
SW684, 0.00051 µM | 1.119
SW684, 0.00152 µM | 1.16
SW684, 0.00457 µM | 1.123
SW684, 0.01372 µM | 1.09
SW684, 0.04115 µM | 1.13
SW684, 0.1235 µM | 1.1
SW684, 0.3704 µM | 0.961
SW684, 1.111 µM | 0.783
SW684, 3.333 µM | 0.601
SW684, 10 µM | 0.636
SW872, 0.00017 µM | 0.993
SW872, 0.00051 µM | 0.973
SW872, 0.00152 µM | 1
SW872, 0.00457 µM | 0.996
SW872, 0.01372 µM | 0.979
SW872, 0.04115 µM | 1.008
SW872, 0.1235 µM | 0.967
SW872, 0.3704 µM | 0.933
SW872, 1.111 µM | 0.473
SW872, 3.333 µM | 0.485
SW872, 10 µM | 0.467
SW1353, 0.00017 µM | 0.982
SW1353, 0.00051 µM | 0.9442
SW1353, 0.00152 µM | 0.985
SW1353, 0.00457 µM | 0.96
SW1353, 0.01372 µM | 0.99
SW1353, 0.04115 µM | 0.963
SW1353, 0.1235 µM | 0.955
SW1353, 0.3704 µM | 0.88
SW1353, 1.111 µM | 0.666
SW1353, 3.333 µM | 0.45
SW1353, 10 µM | 0.453
VA-ES-BJ, 0.00017 µM | 1.01
VA-ES-BJ, 0.00051 µM | 1.03
VA-ES-BJ, 0.00152 µM | 1.02
VA-ES-BJ, 0.00457 µM | 1.03
VA-ES-BJ, 0.01372 µM | 1.01
VA-ES-BJ, 0.04115 µM | 1.01
VA-ES-BJ, 0.1235 µM | 0.991
VA-ES-BJ, 0.3704 µM | 0.76
VA-ES-BJ, 1.111 µM | 0.464
VA-ES-BJ, 3.333 µM | 0.439
VA-ES-BJ, 10 µM | 0.397
